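A five-concentration, 48-hour dose response in 96-well plates underlies each endpoint, interpolated linearly between surrounding concentrations. GI50 = concentration required for 50% inhibition of growth. At the TGI there is no net growth.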
Key:
Test in all cases: DTP human tumour cell line panel, 48 h
[1] = test system: SF-539 CNS
[2] = test system: MCF7 breast
[3] = test system: NCI-H23 lung
[4] = test system: NCI-H522 lung
[5] = test system: MOLT-4 leukemia
[6] = test system: HS 578T breast
[7] = test system: SF-268 CNS
[8] = test system: HOP-62 NSCLC
[9] = test system: HOP-92 NSCLC
[10] = test system: BT-549 breast
[11] = test system: HCT-15 colon
[12] = test system: SK-OV-3 ovarian
[13] = test system: OVCAR-8 ovarian
[14] = test system: NCI-H460 lung
[15] = test system: A549 NSCLC
[16] = test system: HT29 colon
[17] = test system: SF-295 CNS
[18] = test system: MDA-MB-231 breast
[19] = test system: HCC-2998 colon
[20] = test system: TK-10 renal
[21] = test system: OVCAR-3 ovarian
[22] = test system: SK-MEL-2 melanoma
[23] = test system: K-562 leukemia
[24] = test system: SNB-75 CNS
[25] = test system: CAKI-1 renal
[26] = test system: COLO 205 colon
[27] = test system: RXF 393 renal
[28] = test system: CCRF-CEM leukemia
[29] = test system: ACHN renal
[30] = test system: RPMI-8226 leukemia
[31] = test system: M14 melanoma
[32] = test system: KM12 colon
[33] = test system: PC-3 prostate
[34] = test system: UACC-257 melanoma
[35] = test system: NCI/ADR-RES ovarian
[36] = test system: HCT-116 colon
[37] = test system: NCI-H226 lung
[38] = test system: HL-60(TB) leukemia
[39] = test system: IGROV1 ovarian
[40] = test system: UO-31 renal
[41] = test system: SNB-19 CNS
[42] = test system: 786-0 renal
[43] = test system: U251 CNS
[44] = test system: EKVX NSCLC
[45] = test system: MALME-3M melanoma
[46] = test system: SK-MEL-5 melanoma
[47] = test system: MDA-MB-435
[48] = test system: UACC-62 melanoma
[49] = test system: OVCAR-5 ovarian
[50] = test system: SR leukemia
[51] = test system: SK-MEL-28 melanoma
[52] = test system: SW-620 colon
[53] = test system: A498 renal
[54] = test system: LOX IMVI melanoma
[55] = test system: DU-145 prostate
[56] = test system: SN12C renal
[57] = test system: OVCAR-4 ovarian

Molecule `O=S(=O)(O)c1ccc(N=Nc2ccc(N=Nc3c(O)ccc4cc(S(=O)(=O)O)ccc34)cc2)cc1` has a TGI [1] greater than 100 µM, a TGI [2] greater than 100 µM and a TGI [3] greater than 100 µM. It also gave a TGI [4] greater than 100 µM, a TGI [5] greater than 100 µM and a TGI [6] greater than 100 µM. The TGI [7] was greater than 100 µM, the TGI [8] was greater than 100 µM and the TGI [9] was greater than 100 µM. It also gave a TGI [10] greater than 100 µM, a TGI [11] greater than 100 µM and a TGI [12] greater than 100 µM. It also gave a TGI [13] greater than 100 µM, a TGI [14] greater than 100 µM and a TGI [15] greater than 100 µM. The TGI [16] was greater than 100 µM, the TGI [17] was greater than 100 µM and the TGI [18] was greater than 100 µM. For the same molecule, the TGI [19] was greater than 100 µM, the TGI [20] was greater than 100 µM and the TGI [21] was greater than 100 µM. It also gave a TGI [22] greater than 100 µM, a TGI [23] greater than 100 µM and a TGI [24] greater than 100 µM. For the same molecule, the TGI [25] was greater than 100 µM, the TGI [26] was greater than 100 µM and the TGI [27] was greater than 100 µM. For the same molecule, the TGI [28] was greater than 100 µM, the TGI [29] was greater than 100 µM and the TGI [30] was greater than 100 µM. It also gave a TGI [31] greater than 100 µM, a TGI [32] greater than 100 µM and a TGI [33] greater than 100 µM. It also gave a TGI [34] greater than 100 µM, a TGI [35] greater than 100 µM and a TGI [36] greater than 100 µM. It also gave a TGI [37] greater than 100 µM, a TGI [38] greater than 100 µM and a TGI [39] greater than 100 µM. The TGI [40] was greater than 100 µM, the TGI [41] was greater than 100 µM and the TGI [42] was greater than 100 µM. It also gave a TGI [43] greater than 100 µM, a TGI [44] greater than 100 µM and a TGI [45] greater than 100 µM. The TGI [46] was greater than 100 µM, the TGI [47] was greater than 100 µM and the TGI [48] was greater than 100 µM. For the same molecule, the TGI [49] was greater than 100 µM, the TGI [50] was greater than 100 µM and the TGI [51] was greater than 100 µM. For the same molecule, the TGI [52] was greater than 100 µM.

Molecule `Cn1cc(NC(=O)c2cc(NC(=O)c3cc(NC=O)cn3C)cn2C)cc1C(=O)NCCC(=N)N` has a TGI [1] greater than 100 µM, a TGI [2] greater than 100 µM and a TGI [53] greater than 100 µM. The TGI [3] was greater than 100 µM, the TGI [5] was greater than 100 µM and the TGI [6] was greater than 100 µM. For the same molecule, the TGI [7] was greater than 100 µM, the TGI [8] was greater than 100 µM and the TGI [54] was greater than 100 µM. It also gave a TGI [10] greater than 100 µM, a TGI [11] greater than 100 µM and a TGI [12] greater than 100 µM. It also gave a TGI [13] greater than 100 µM, a TGI [14] greater than 100 µM and a TGI [16] greater than 100 µM. It also gave a TGI [17] greater than 100 µM, a TGI [18] greater than 100 µM and a TGI [20] greater than 100 µM. The TGI [21] was greater than 100 µM, the TGI [22] was greater than 100 µM and the TGI [23] was greater than 100 µM. For the same molecule, the TGI [24] was greater than 100 µM, the TGI [25] was greater than 100 µM and the TGI [26] was greater than 100 µM. It also gave a TGI [27] greater than 100 µM, a TGI [28] greater than 100 µM and a TGI [29] greater than 100 µM. It also gave a TGI [30] greater than 100 µM, a TGI [31] greater than 100 µM and a TGI [32] greater than 100 µM. For the same molecule, the TGI [33] was greater than 100 µM, the TGI [55] was greater than 100 µM and the TGI [34] was greater than 100 µM. The TGI [35] was greater than 100 µM, the TGI [36] was greater than 100 µM and the TGI [56] was greater than 100 µM. It also gave a TGI [37] greater than 100 µM, a TGI [38] greater than 100 µM and a TGI [39] greater than 100 µM. It also gave a TGI [40] greater than 100 µM, a TGI [41] greater than 100 µM and a TGI [42] greater than 100 µM. For the same molecule, the TGI [43] was greater than 100 µM, the TGI [44] was greater than 100 µM and the TGI [45] was greater than 100 µM. It also gave a TGI [46] greater than 100 µM, a TGI [47] greater than 100 µM and a TGI [48] greater than 100 µM. The TGI [49] was greater than 100 µM, the TGI [51] was greater than 100 µM and the TGI [52] was greater than 100 µM.

With `CCOC(=O)c1cc(C(=O)c2ccc(Cl)cc2)n2ccc(-c3cc[n+](CC(=O)c4ccc(OC)cc4)cc3)cc12` the GI50 [1] was 1680 nM, the TGI [1] was 3.27 µM and the GI50 [2] was 1400 nM. For the same molecule, the TGI [2] was 3.36 µM, the GI50 [53] was 1600 nM and the TGI [53] was 3.17 µM. It also gave a GI50 [3] of 1840 nM, a TGI [3] of 3.74 µM and a GI50 [4] of 1930 nM. It also gave a TGI [4] of 3.89 µM, a GI50 [6] of 1810 nM and a TGI [6] of 4.38 µM. For the same molecule, the GI50 [9] was 1490 nM, the TGI [9] was 3.17 µM and the GI50 [11] was 1640 nM. For the same molecule, the TGI [11] was 3.6 µM, the GI50 [12] was 2010 nM and the TGI [12] was 3.62 µM. It also gave a GI50 [17] of 1700 nM, a TGI [17] of 3.32 µM and a GI50 [18] of 1590 nM. For the same molecule, the TGI [18] was 3.25 µM, the GI50 [20] was 1760 nM and the TGI [20] was 3.37 µM. It also gave a GI50 [21] of 1880 nM, a TGI [21] of 3.65 µM and a GI50 [22] of 2040 nM. The TGI [22] was 4.36 µM, the GI50 [24] was 1470 nM and the TGI [24] was 3.09 µM. For the same molecule, the GI50 [27] was 1400 nM, the TGI [27] was 3.03 µM and the GI50 [29] was 1780 nM. For the same molecule, the TGI [29] was 3.31 µM, the GI50 [55] was 1690 nM and the TGI [55] was 3.2 µM. It also gave a GI50 [34] of 2210 nM, a TGI [34] of 4.53 µM and a GI50 [35] of 3.16 µM. For the same molecule, the TGI [35] was 33 µM, the GI50 [56] was 1830 nM and the TGI [56] was 3.59 µM. It also gave a GI50 [57] of 1680 nM, a TGI [57] of 3.4 µM and a GI50 [40] of 1470 nM. It also gave a TGI [40] of 2.99 µM, a GI50 [41] of 1830 nM and a TGI [41] of 3.73 µM. It also gave a GI50 [43] of 1700 nM, a TGI [43] of 3.54 µM and a GI50 [44] of 1690 nM. For the same molecule, the TGI [44] was 3.5 µM, the GI50 [45] was 2010 nM and the TGI [45] was 3.98 µM. For the same molecule, the GI50 [46] was 1770 nM, the TGI [46] was 3.42 µM and the GI50 [47] was 1860 nM. The TGI [47] was 3.67 µM, the GI50 [48] was 1820 nM and the TGI [48] was 3.52 µM. It also gave a GI50 [49] of 1820 nM, a TGI [49] of 3.69 µM and a GI50 [51] of 1890 nM. For the same molecule, the TGI [51] was 3.74 µM, the GI50 [52] was 1380 nM and the TGI [52] was 3.27 µM.

`Cc1ccc(O)c(N=Nc2c(O)cc(S(=O)(=O)O)c3ccccc23)c1` gave a TGI [1] greater than 100 µM, a TGI [2] greater than 100 µM and a TGI [5] of 95.3 µM. For the same molecule, the TGI [6] was greater than 100 µM, the TGI [7] was greater than 100 µM and the TGI [8] was greater than 100 µM. The TGI [9] was greater than 100 µM, the TGI [10] was greater than 100 µM and the TGI [11] was greater than 100 µM. It also gave a TGI [12] greater than 100 µM, a TGI [13] greater than 100 µM and a TGI [14] greater than 100 µM. It also gave a TGI [15] greater than 100 µM, a TGI [16] greater than 100 µM and a TGI [17] greater than 100 µM. The TGI [18] was greater than 100 µM, the TGI [19] was greater than 100 µM and the TGI [20] was greater than 100 µM. The TGI [21] was 76.2 µM, the TGI [22] was greater than 100 µM and the TGI [23] was greater than 100 µM. For the same molecule, the TGI [25] was greater than 100 µM, the TGI [26] was greater than 100 µM and the TGI [27] was greater than 100 µM. The TGI [28] was greater than 100 µM, the TGI [29] was greater than 100 µM and the TGI [30] was greater than 100 µM. For the same molecule, the TGI [31] was greater than 100 µM, the TGI [32] was greater than 100 µM and the TGI [33] was greater than 100 µM. For the same molecule, the TGI [34] was greater than 100 µM, the TGI [35] was 86.5 µM and the TGI [36] was 62.5 µM. It also gave a TGI [37] greater than 100 µM, a TGI [38] of 64 µM and a TGI [39] greater than 100 µM. For the same molecule, the TGI [57] was greater than 100 µM, the TGI [40] was 79.6 µM and the TGI [42] was greater than 100 µM. For the same molecule, the TGI [43] was greater than 100 µM, the TGI [44] was greater than 100 µM and the TGI [45] was greater than 100 µM. For the same molecule, the TGI [46] was 77.6 µM, the TGI [47] was greater than 100 µM and the TGI [48] was greater than 100 µM. The TGI [49] was greater than 100 µM, the TGI [50] was greater than 100 µM and the TGI [51] was greater than 100 µM. The TGI [52] was greater than 100 µM.
